Columns and labels:
[1] = test system: dGsw^121,caged (RNA, riboswitch, (S)-NPE photocage at C4 position of nucleobases of U108, U110 and U112) AAUGAAUAUAAAAGAAACUUAUACAGGGUAGCAUAAUGGGCUACUGACCCCGCCUUCAAACCUAUUUGGAGACUAUAAGUGAAAAACCACUCUUUAAUUAUUAAAGUUUCUUUUUAUGUC; experiment: NMR (1H,15N-TROSY, imino protons); conditions: 50 mM KCl, 25 mM K phosphate, 6 eq. Mg2+; pH 6.2, 298 K; 100 µM RNA, 2 eq. ligand; before photolysis
[2] = test system: dGsw^121 (RNA, riboswitch) AAUGAAUAUAAAAGAAACUUAUACAGGGUAGCAUAAUGGGCUACUGACCCCGCCUUCAAACCUAUUUGGAGACUAUAAGUGAAAAACCACUCUUUAAUUAUUAAAGUUUCUUUUUAUGUC; experiment: NMR (1H,15N-TROSY, imino protons); conditions: 50 mM KCl, 25 mM K phosphate, 6 eq. Mg2+; pH 6.2, 298 K; 100 µM RNA, 2 eq. ligand; after photolysis; antiterminator folds only to ~80%

binding [1]: yes | binding [2]: yes
SMILES: Nc1nc2c(ncn2[C@H]2C[C@H](O)[C@@H](CO)O2)c(=O)[nH]1
